Test system: HDAC
Test: HDAC inhibition assay using an aminocoumarin derivative of an omega-acetylated lysine as substrate
Type: biochemical
Conditions: compound concentration 10 nM
Method: To determine the HDAC inhibitory properties of the compounds of the invention an assay was performed using an aminocoumarin derivative of an omega-acetylated lysine as substrate for the enzyme. This assay has been described in detail in the literature (Nucleic Acid Research 1999, 27, 2057–2058. Using the protocol described therein, the inhibitory effect of representative compounds was determined at a concentration of 10 nM. The observed inhibition rates for selected compounds are shown in Table 1: […]

SMILES | Inhibitory effect at 10 nM in % [%]
O=C(CCCCCCCN1c2cccc3cccc(c23)S1(=O)=O)NO [Example 1, 8-(1,1-dioxo-2H-naphtho[1,8-cd]isothiazol-2-yl)-octanoic acid hydroxyamide] | 64
O=C(CCCCCCN1c2cccc3cccc(c23)S1(=O)=O)NO [Example 2, 7-(1,1-dioxo-2H-naphtho[1,8-cd]isothiazol-2-yl)-heptanoic acid hydroxyamide] | 90
O=C(CCCCCCCN1C(=O)c2cccc3cccc1c23)NO [Example 3, 8-(2-oxo-2H-benzo[cd]indol-1-yl)-octanoic acid hydroxyamide] | 82

— US7091229B2, “Tricyclic lactam and sultam derivatives and their use as histone deacetylase inhibitors” (Hoffman-La Roche Inc., priority 2001, dated 2006)
